# Laboratory results published in US9649313B2, “Use of ITK inhibitors for the treatment of cancer” (The University of North Carolina at Chapel Hill, priority 2012, dated 2017).
# Biological target: T1, MST1 (Homo sapiens, UniProt Q13043)
# T1 construct: purchased Carna Biosciences
# T1 sequence (Q13043 1-487): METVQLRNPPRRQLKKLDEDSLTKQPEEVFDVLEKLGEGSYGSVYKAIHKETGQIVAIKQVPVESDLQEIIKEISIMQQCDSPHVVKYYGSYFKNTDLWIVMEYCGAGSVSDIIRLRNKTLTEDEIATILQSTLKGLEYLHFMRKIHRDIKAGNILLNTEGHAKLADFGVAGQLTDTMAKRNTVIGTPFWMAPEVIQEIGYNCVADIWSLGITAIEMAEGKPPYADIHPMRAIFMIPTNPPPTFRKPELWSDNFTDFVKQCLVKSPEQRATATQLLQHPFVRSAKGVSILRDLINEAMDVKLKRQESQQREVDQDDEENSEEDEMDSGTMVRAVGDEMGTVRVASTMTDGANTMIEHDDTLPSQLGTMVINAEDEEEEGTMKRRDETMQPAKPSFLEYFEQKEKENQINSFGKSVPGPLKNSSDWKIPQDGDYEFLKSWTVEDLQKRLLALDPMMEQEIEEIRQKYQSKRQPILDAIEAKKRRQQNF
# Experiment: cell-free kinase assay
# Format: biochemical
# Source text: We investigated the potency and selectivity of BI 10N against 56 kinases using a cell-free assay (Table 8A).
# The selectivity of this inhibitor was investigated by testing the potency of the inhibitor at two concentrations with 53 kinases by Carna Biosciences (MA) (Table 2).
compound,measurement,setting,value
C[C@]12O[C@H](C[C@]1(O)C(=O)O)n1c3ccccc3c3c4c(c5c6ccccc6n2c5c31)CNC4=O [K252b],IC50,ATP concentration at approximately the Km for ATP,3.43 nM
same,IC50,"Table 2, by Carna Biosciences",3.43 nM
